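Briefly, cells in 96-well plates were exposed to five compound concentrations for 48 h, and endpoints were estimated by linear interpolation. GI50: concentration for 50% inhibition of growth. TGI denotes the concentration required for complete inhibition of growth.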
Experiments:
Assay in all cases: inhibition of tumour cell growth, NCI panel, 48 h
A549 NSCLC = tested on: A549 NSCLC
HOP-92 NSCLC = tested on: HOP-92 NSCLC
SR leukemia = tested on: SR leukemia
UACC-62 melanoma = tested on: UACC-62 melanoma
KM12 colon = tested on: KM12 colon
HCC-2998 colon = tested on: HCC-2998 colon
HCT-116 colon = tested on: HCT-116 colon
NCI-H226 lung = tested on: NCI-H226 lung
SF-268 CNS = tested on: SF-268 CNS
TK-10 renal = tested on: TK-10 renal

SMILES | TGI (A549 NSCLC) | TGI (HOP-92 NSCLC) | TGI (SR leukemia) | TGI (UACC-62 melanoma) | TGI (KM12 colon) | TGI (HCC-2998 colon) | TGI (HCT-116 colon) | TGI (NCI-H226 lung) | TGI (SF-268 CNS) | TGI (TK-10 renal) | GI50 (A549 NSCLC) | GI50 (HOP-92 NSCLC) | GI50 (SR leukemia) | GI50 (UACC-62 melanoma) | GI50 (KM12 colon) | GI50 (HCC-2998 colon) | GI50 (HCT-116 colon) | GI50 (NCI-H226 lung) | GI50 (SF-268 CNS) | GI50 (TK-10 renal)
COc1ccc(C(=O)C(C(=O)C(=O)NCCCNC(=O)C(=O)C(C(=O)c2ccc(OC)cc2)c2ccc(OC)cc2)c2ccc(OC)cc2)cc1 (centres undefined) | > 100 µM | > 100 µM | > 100 µM | > 100 µM | > 100 µM | > 100 µM | > 100 µM | > 100 µM | > 100 µM | > 100 µM | – | – | – | – | – | – | – | – | – | –
O=C1NC(=NCCc2ccc(Br)cc2)S/C1=C\c1ccc2ncccc2c1 | > 25 µM | > 25 µM | > 25 µM | > 25 µM | > 25 µM | > 25 µM | > 25 µM | > 25 µM | > 25 µM | > 25 µM | > 25 µM | > 25 µM | 7.31 µM | > 25 µM | 24.6 µM | > 25 µM | 16.7 µM | > 25 µM | 15.9 µM | > 20.1 µM
Clc1ccc(-c2nc(NCc3ccco3)c3ccccc3n2)c(Cl)c1 | 49.1 µM | 74.7 µM | 44.7 µM | 32.7 µM | 27.3 µM | 46.9 µM | 45.8 µM | > 100 µM | 75.3 µM | 7.1 µM | 20.1 µM | 4.94 µM | 10.1 µM | 13.9 µM | 10.2 µM | 18.2 µM | 16.3 µM | 20.7 µM | 32.3 µM | 2.38 µM
C[C@]12CCC(=O)C[C@@H]1CC[C@@H]1[C@@H]2CC[C@]2(C)[C@@H](OC(=O)N(CCCl)N=O)CC[C@@H]12 | 11.6 µM | 11.1 µM | > 37.7 µM | 11.7 µM | 6.41 µM | 7.95 µM | > 35.1 µM | 30.4 µM | 8.85 µM | 27.7 µM | 0.353 µM | 0.179 µM | – | 0.377 µM | 1.49 µM | 0.933 µM | 2.89 µM | 11.9 µM | 0.0983 µM | 3.85 µM
CCN1C(=O)N(CC)C2C1N=C(SC)N2/N=C/C=C/c1ccccc1OC (centres undefined) | > 47.8 µM | 7.31 µM | 13.2 µM | > 40.4 µM | > 39.6 µM | > 41.1 µM | 24.8 µM | > 52.3 µM | > 57.7 µM | > 58.7 µM | 0.469 µM | 0.428 µM | 0.358 µM | 0.492 µM | 0.404 µM | 0.413 µM | 0.375 µM | 2.14 µM | 0.877 µM | 1.09 µM
CCCCCCCCN=C(NCCCCCCCC)SCc1cccc2ccccc12 | 3.13 µM | 2.28 µM | 2.39 µM | 3.22 µM | 3.19 µM | 3.05 µM | 2.01 µM | 2.95 µM | 3.37 µM | 3.2 µM | 1.67 µM | 1.03 µM | 0.427 µM | 1.72 µM | 1.68 µM | 1.62 µM | 0.73 µM | 1.52 µM | 1.83 µM | 1.74 µM

— PubChem BioAssay (NCI)
